Reference: publication PMC3804129 (Journal of medicinal chemistry, 2013)
One block for each compound: values may come before it.

Biological target: T1, human VAChT (Homo sapiens, UniProt Q16572)
T1 sequence (Q16572 1-532): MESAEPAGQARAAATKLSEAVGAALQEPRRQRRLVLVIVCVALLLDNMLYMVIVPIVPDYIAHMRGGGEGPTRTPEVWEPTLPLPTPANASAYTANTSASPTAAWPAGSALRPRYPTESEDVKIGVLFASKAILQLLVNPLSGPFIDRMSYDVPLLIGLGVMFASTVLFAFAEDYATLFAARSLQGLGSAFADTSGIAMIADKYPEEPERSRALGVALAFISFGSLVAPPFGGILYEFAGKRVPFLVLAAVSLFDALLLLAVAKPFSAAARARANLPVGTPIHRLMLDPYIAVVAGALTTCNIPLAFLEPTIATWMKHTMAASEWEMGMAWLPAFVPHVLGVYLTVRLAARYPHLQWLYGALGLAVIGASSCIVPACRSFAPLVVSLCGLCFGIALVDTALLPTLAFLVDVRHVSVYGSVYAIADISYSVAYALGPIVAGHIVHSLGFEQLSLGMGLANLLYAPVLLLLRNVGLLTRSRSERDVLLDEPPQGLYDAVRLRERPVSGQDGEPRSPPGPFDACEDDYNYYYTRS
Experiment: VAChT binding assay, displacement of
Conditions: for decrease in affinity for VAChT compared to 9: relative to compound 9; for VAChT selectivity Kiσ1/Ki VAChT: Ki for σ1 divided by Ki for VAChT; for selectivity for VAChT over σ receptors (σ1 and σ2): versus either sigma receptor type; for decrease in affinity for VAChT compared to 19e: relative to compound 19e

- lower affinity for VAChT compared to benzoyl counterpart 5 (relative to compound 5): 5 fold
SMILES: O=C(c1cccnc1)C1CCN(C2Cc3ccccc3CC2O)CC1 (racemic) [Compound 19c, (1-(3-Hydroxy-1,2,3,4-tetrahydronaphthalen-2-yl)piperidin-4-yl)(pyridin-3-yl)methanone]

SMILES: Cn1ccc(C(=O)C2CCN(C3Cc4ccccc4CC3O)CC2)c1 (racemic) [Compound 19b, (1-(3-Hydroxy-1,2,3,4-tetrahydronaphthalen-2-yl)piperidin-4-yl)(1-methyl-1H-pyrrol-3-yl)methanone]
- decrease in affinity for VAChT compared to 9: 4-5 fold

SMILES: CNc1ccc(C(=O)C2CCN(C3Cc4ccccc4CC3O)CC2)cc1 (racemic) [Compound 24b, (1-(3-Hydroxy-1,2,3,4-tetrahydronaphthalen-2-yl)piperidin-4-yl)(4-(methylamino)phenyl) methanone]
- VAChT selectivity Kiσ1/Ki VAChT: 100

SMILES: O=C(c1cccnc1F)C1CCN(C2Cc3ccccc3CC2O)CC1 (racemic) [Compound 19k, (2-Fluoropyridin-3-yl)(1-(3-hydroxy-1,2,3,4-tetrahydronaphthalen-2-yl)piperidin-4-yl)methanone]
- VAChT selectivity Kiσ1/Ki VAChT: 100

SMILES: Cn1cccc1C(=O)C1CCN(C2Cc3ccccc3CC2O)CC1 (racemic) [Compound 19a, (1-(3-Hydroxy-1,2,3,4-tetrahydronaphthalen-2-yl)piperidin-4-yl)(1-methyl-1H-pyrrol-2-yl)methanone]
- decrease in affinity for VAChT compared to 9: 4-5 fold
- selectivity for VAChT over σ receptors (σ1 and σ2): > 70 fold

- higher VAChT binding affinity than 31a (relative to compound 31a): 60 fold
SMILES: Cn1cccc1C(=O)C1CCN(C2Cc3c(N)cccc3CC2O)CC1 (racemic) [Compound 30a, (1-(8-Amino-3-hydroxy-1,2,3,4-tetrahydronaphthalen-2-yl)piperidin-4-yl)(1-methyl-1Hpyrrol-2-yl)methanone]

SMILES: COc1cccnc1C(=O)C1CCN(C2Cc3ccccc3CC2O)CC1 (racemic) [Compound 19f, (1-(3-Hydroxy-1,2,3,4-tetrahydronaphthalen-2-yl)piperidin-4-yl)(3-methoxypyridin-2-yl)methanone]
- decrease in affinity for VAChT compared to 19e: 15 fold

SMILES: O=C(c1cncc(F)c1)C1CCN(C2Cc3ccccc3CC2O)CC1 (racemic) [Compound 19g, (5-Fluoropyridin-3-yl)(1-(3-hydroxy-1,2,3,4-tetrahydronaphthalen-2-yl)piperidin-4-yl)methanone]
- selectivity for VAChT over σ receptors (σ1 and σ2): > 70 fold

SMILES: O=C(c1ccc(OCCF)nc1)C1CCN(C2Cc3ccccc3CC2O)CC1 (racemic) [Compound 26a, (6-(2-Fluoroethoxy)pyridin-3-yl)(1-(3-hydroxy-1,2,3,4-tetrahydronaphthalen-2-yl)-piperidin-4-yl)methanone]
- decrease in affinity for VAChT compared to 19e: 4.5 fold
